Test results: US20260174823A1 (The Children's Medical Center Corporation, priority 2022, published 2026)
“Also recorded” adds a separate entry of the source.

How the values were obtained:
[1] = test system: endometriosis lesions; assay: endometriosis lesion size measured with calipers in mouse model; type: in vivo
[2] = test system: murine model for endometriosis pain; assay: endometriosis-associated pain overall (von Frey plus spontaneous pain behaviors) in mouse model; type: in vivo; settings: vs vehicle
Procedure: (§1) After at least one week of acclimatization, donor mice received a subcutaneous injection of 3 μg/mouse estradiol benzoate to stimulate the growth of the endometrium. Seven days later, the uteri of the donor mice were dissected into a Petri dish containing HBSS and split longitudinally with a pair of scissors. Uterine horns from each donor mouse were minced with scissors and scalpel one at the time, ensuring that the maximal diameter of each fragment was consistently smaller than 1 millimeter (mm). Each dissociated uterine horn was then injected intraperitoneally using an 18 G needle into a recipient mouse in 500 μL of HBSS. One donor mouse was used for every two endometriosis mice.
(§2) For mechanical and heat hyperalgesia tests, mice were allowed to habituate to the apparatus for at least 2 hours and during three consecutive days before the beginning of measurements. […] Pain intensity to a mechanical stimulus (mechanical hyperalgesia) in the abdominal region was measured using von Frey filaments. […] The mechanical threshold was determined by the up and down method starting with 0.4 g filament and calculated using the open-source software Up-Down Reader.
For spontaneous abdominal pain measurements, stretching the abdomen (abdominal contortions) and squashing of the lower abdomen against the floor were quantified. […]

[3] = test system: murine model for endometriosis pain; assay: spontaneous pain quantification (abdominal squashing and contortions) in mouse model of endometriosis; type: in vivo
Procedure: as §1
For spontaneous abdominal pain measurements, stretching the abdomen (abdominal contortions) and squashing of the lower abdomen against the floor were quantified. Briefly, for the abdominal contortions, mice were placed in individual chambers in a temperature-controlled (29° C.) glass plate and the number of abdominal contortions was quantified for 10 minutes.
Positive responses consist of a contraction of the abdominal muscle together with stretching of hind limbs. For abdominal squashing, the number of times the mice pressed the lower abdominal region against the floor in five minutes was quantified.
It was therefore tested whether Rimegepant is effective at reducing pain in a murine model (FIG. 1A). Endometriosis lesions were induced in 40 mice and at day 29 post-induction, mice were randomly assigned to treatment with vehicle or Rimegepant at 3, 10, or 30 mg/kg (n=10 mice per group). Treatment was performed daily by oral gavage. Mechanical abdominal pain was determined weekly, 7 to 42 days post implantation (dpi) using von Frey filaments, while abdominal squashing and contortions were determined by counting these pain behaviors. Lesion size was calculated from the mean of two measurements (width and height in mm). […]

[4] = test system: murine model for endometriosis pain; assay: von Frey testing of abdominal mechanical pain in non-surgical mouse model of endometriosis; type: in vivo
Procedure: as §1, §2
It was therefore tested whether Rimegepant is effective at reducing pain in a murine model (FIG. 1A). […] Lesion size was calculated from the mean of two measurements (width and height in mm). […]

[5] = test system: mouse endometrial epithelial cells (mEECs); assay: mEEC proliferation assay in transwell co-culture with peritoneal macrophages (CyQuant); type: cell-based; settings: Rimegepant 100 nM 30 minutes before CGRP 100 nM for 24 hours
Procedure: (§3) Peritoneal cells were collected in FACS buffer from the abdominal cavity of naïve mice. Peritoneal cavity immune cells were seeded in petri dishes in RPMI media and incubated at 37° C. in 5% CO2 for 60 minutes. Non-adherent cells were discarded, and adherent cells (macrophages) were scraped, centrifuged, and counted.
For experiments involving mouse epithelial endometrial cell (mEEC) proliferation, macrophages were plated (100,000 cells per well) onto tissue culture insert and left overnight with 20,000 mEEC plated on the bottom of the well. Stimulus with CGRP (100 nM) or vehicle was performed for 24 hours and then mEEC were used to determine for cell proliferation assay using CyQuant™ kit (Thermo Fisher Scientific #C7026). Treatment with Rimegepant (100 nM) or vehicle was performed 30 minutes before stimulus with CGRP.
In this experiment, peritoneal macrophages were plated on a cell culture insert and co-cultured with a mouse epithelial endometrial cell line (mEEC) in a 24-well plate. Cell growth was assessed using the CyQuant™ kit and quantification performed in a spectrophotometer (n=8 well per group).
Macrophages were plated onto tissue culture insert with mEEC plated on the bottom of the well. […] Results shown are expressed as mean±SEM, n=5−12 (one-way ANOVA followed by Tukey's post hoc or Student's t-test, ****P<0.0001, p<0.001, **p<0.02, *p<0.05).

[6] = cited from earlier work
[7] = test system: peritoneal macrophages; assay: efferocytosis assay: peritoneal macrophages with apoptotic 12z-eGFP cells; type: cell-based, mouse; settings: Rimegepant 100 nM 30 minutes before CGRP 100 nM for 24 hours; apoptotic 12z-eGFP added for 1 hour
Procedure: as §3
For the efferocytosis assay, macrophages (200,000 cells per well) were plated overnight onto a 96-well plate. Stimulus with CGRP (100 nM) or vehicle was performed for 24 hours. After that, etoposide-induced apoptotic 12z-eGFP were added (600,000 cells per well) to the macrophage culture and incubated for 1 hour. Cells were washed 3 times with DPBS to remove non-engulfed 12z-eGFP and then and fluorescence intensity determined. Treatment with Rimegepant (100 nM) or vehicle was performed 30 minutes before stimulus with CGRP. […]
For the efferocytosis assay, macrophages were plated overnight onto a 96-well plate and stimulus with CGRP (100 nM) or vehicle was performed for 24 h. […] Cells were washed 3 times with DPBS to remove non-engulfed 12z-eGFP and then and fluorescence intensity determined. […] Results shown are expressed as mean±SEM, n=5−12 (one-way ANOVA followed by Tukey's post hoc or Student's t-test, ****P<0.0001, p<0.001, **p<0.02, *p<0.05).

[8] = test system: murine model for endometriosis pain; assay: endometriosis-associated pain overall (von Frey plus spontaneous pain behaviors) in mouse model; type: in vivo; settings: 29 to 56 dpi, vs vehicle
[9] = nociceptor ablation in RTX-treated lesion-bearing mice
[10] = Rimegepant 3, 10 or 30 mg/kg daily by oral gavage, 29 to 42 dpi, vs vehicle

## CC[N+](CC)(CC)CC(=O)Nc1c(C)cccc1C [QX-314]
[1]; QX-314 0.1 or 1 mg/kg daily i.p., 29 to 35 dpi, vs vehicle
  lesion size: reduced lesion size; also recorded: reduces
[2]; QX-314 0.1 or 1 mg/kg daily i.p., 29 to 35 dpi
  endometriosis-associated pain: reduced endometriosis-associated pain; also recorded: reduces

## C=C(C)[C@]12C[C@@H](C)[C@@]34O[C@](Cc5ccccc5)(O[C@@H]1[C@@H]3C=C(COC(=O)Cc1ccc(O)c(OC)c1)C[C@]1(O)C(=O)C(C)=C[C@@H]41)O2 [RTX, resiniferatoxin toxin]
[3]; [9]
  spontaneous pain behaviors: reduced
[1]; [9]
  lesion size: reduced
[4]; [9]
  evoked pain: reduced

## N[C@@H]1c2cccnc2[C@H](OC(=O)N2CCC(n3c(=O)[nH]c4ncccc43)CC2)CC[C@H]1c1cccc(F)c1F [Rimegepant]
[5]
  growth (proliferation) of mEEC promoted by CGRP-stimulated macrophages: inhibited; also recorded: reduces mEEC proliferation
[6]; chronic treatment (26 weeks)
  preclinical safety profile upon chronic treatment: safe preclinical profile
[6]; doses as high as 60 mg/kg
  adverse effects on fertility: no adverse effects on fertility
[3]; [10]
  number of abdominal contortion: reduced
  number of abdominal squashing: reduced
[1]; [10]
  lesion size: reduced lesion size; also recorded: reduces
[7]
  efferocytosis activity of CGRP-stimulated macrophages (eGFP fluorescence intensity): rescued; also recorded: restores normal levels of efferocytosis
[4]; [10]
  abdominal mechanical threshold to the von Frey fibers: increased
[2]; Rimegepant 3, 10 or 30 mg/kg daily by oral gavage, 29 to 42 dpi
  endometriosis-associated pain: reduces endometriosis-associated pain

## C[C@@H]1[C@H](c2ccccc2)C[C@H](NC(=O)c2cnc3c(c2)C[C@@]2(C3)C(=O)Nc3ncccc32)C(=O)N1CC(F)(F)F [Ubrogepant]
[8]; Ubrogepant 50 mg/kg daily per oral gavage
  endometriosis-associated pain: significant reduction
[8]; Ubrogepant 50 mg/kg daily per oral gavage, listed as Ubrogevant
  endometriosis-associated pain: reduce
[1]; Ubrogepant 50 mg/kg daily per oral gavage, 29 to 56 dpi, vs vehicle
  lesion size: significantly smaller
[1]; Ubrogepant 50 mg/kg daily per oral gavage, 29 to 56 dpi, vs vehicle, listed as Ubrogevant
  lesion size: reduce

B1: Galcanezumab (antibody, chains of the INN, looked up, V domains shown)
VH: QVQLVQSGAEVKKPGSSVKVSCKASGYTFGNYWMQWVRQAPGQGLEWMGAIYEGTGKTVYIQKFADRVTITADKSTSTAYMELSSLRSEDTAVYYCARLSDYVSGFGYWGQGTTVTVSS
VL: DIQMTQSPSSLSASVGDRVTITCRASKDISKYLNWYQQKPGKAPKLLIYYTSGYHSGVPSRFSGSGSGTDFTLTISSLQPEDFATYYCQQGDALPPTFGGGTKVEIK
notes: a second monoclonal antibody antagonist of CGRP
[8]; Galcanezumab 4 mg/kg subcutaneous injection
  endometriosis-associated pain: significant reduction; also recorded: reduce
[1]; Galcanezumab 4 mg/kg subcutaneous injection, 29 to 56 dpi, vs vehicle
  lesion size: reduce

B2: Fremanezumab (antibody, chains of the INN, looked up, V domains shown)
VH: EVQLVESGGGLVQPGGSLRLSCAASGFTFSNYWISWVRQAPGKGLEWVAEIRSESDASATHYAEAVKGRFTISRDNAKNSLYLQMNSLRAEDTAVYYCLAYFDYGLAIQNYWGQGTLVTVSS
VL: EIVLTQSPATLSLSPGERATLSCKASKRVTTYVSWYQQKPGQAPRLLIYGASNRYLGIPARFSGSGSGTDFTLTISSLEPEDFAVYYCSQSYNYPYTFGQGTKLEIK
notes: a monoclonal antibody antagonist of CGRP
[8]; Fremanezumab 100 mg/kg subcutaneous injection
  endometriosis-associated pain: significant reduction; also recorded: reduce
[1]; Fremanezumab 100 mg/kg subcutaneous injection, 29 to 56 dpi, vs vehicle
  lesion size: significantly smaller; also recorded: reduce
